Laboratory results reported in patent publication US20130079345A1, “[…] ACTIVE DISUBSTITUTED TRIAZINE DERIVATIVES” (BAYER INTELLECTUAL PROPERTY GMBH, priority 2010, published 2013).
Structures can show the parent of a compound that is named as a salt.

biological target: T1, CDK9/Cyclin T1 (Homo sapiens, UniProt P50750); test: LanthaScreen Eu Kinase Binding Assay, CDK9/Cyclin T1; details: tracer 236, read-out: Affinity (Kd) CDK9/Cyclin T1
T1 construct: purchased Invitrogen
Outline: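 TR-FRET competition binding with Alexa Fluor 647 tracer and Eu-anti-GST antibody; e.g. CDK2/Cyclin A 15 nM with tracer 236 60 nM (working solutions). Kinase buffer: HEPES 20 mM pH 8.0, MgCl2 10 mM, DTT 1 mM, Brij-35 0.01%; 8-point 1:3 series, 1 h at room temperature; Kd from sigmoidal dose-response curves.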

T1 sequence (P50750 whole entry): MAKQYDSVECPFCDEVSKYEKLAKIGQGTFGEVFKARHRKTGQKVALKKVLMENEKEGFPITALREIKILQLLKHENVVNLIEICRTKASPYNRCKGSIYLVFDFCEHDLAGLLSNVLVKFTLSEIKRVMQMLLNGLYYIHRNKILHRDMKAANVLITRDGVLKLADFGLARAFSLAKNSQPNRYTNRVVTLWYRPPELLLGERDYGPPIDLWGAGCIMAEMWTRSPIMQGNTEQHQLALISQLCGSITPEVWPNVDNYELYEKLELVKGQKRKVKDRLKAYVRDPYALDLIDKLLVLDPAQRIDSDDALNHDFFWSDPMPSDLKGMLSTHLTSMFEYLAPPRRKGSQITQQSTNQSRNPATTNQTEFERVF
T1 sequence (O60563 whole entry partner): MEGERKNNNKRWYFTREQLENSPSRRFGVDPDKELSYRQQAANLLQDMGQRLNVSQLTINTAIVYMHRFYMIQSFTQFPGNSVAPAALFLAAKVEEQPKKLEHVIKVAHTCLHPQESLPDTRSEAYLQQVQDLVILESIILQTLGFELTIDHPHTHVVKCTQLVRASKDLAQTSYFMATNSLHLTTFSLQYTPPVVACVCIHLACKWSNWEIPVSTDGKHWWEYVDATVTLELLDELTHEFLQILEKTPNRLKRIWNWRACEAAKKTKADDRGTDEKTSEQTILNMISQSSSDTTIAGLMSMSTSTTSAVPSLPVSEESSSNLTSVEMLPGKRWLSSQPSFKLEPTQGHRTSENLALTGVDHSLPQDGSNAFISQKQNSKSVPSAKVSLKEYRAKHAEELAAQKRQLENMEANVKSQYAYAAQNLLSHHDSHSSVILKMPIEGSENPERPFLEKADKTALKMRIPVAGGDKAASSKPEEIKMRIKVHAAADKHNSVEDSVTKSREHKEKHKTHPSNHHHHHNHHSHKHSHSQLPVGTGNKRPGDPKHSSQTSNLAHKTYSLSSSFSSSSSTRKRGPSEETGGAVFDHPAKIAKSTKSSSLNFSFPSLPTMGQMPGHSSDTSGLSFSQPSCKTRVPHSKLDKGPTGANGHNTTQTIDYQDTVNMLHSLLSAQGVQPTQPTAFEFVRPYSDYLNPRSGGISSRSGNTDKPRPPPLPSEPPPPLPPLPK

| Compound | Kd |
| --- | --- |
| COc1ccccc1-c1ncnc(Nc2cccc(CS(N)(=O)=O)c2)n1 [B1′, 3-[(4-(2-Methoxyphenyl)-1,3,5-triazin-2-yl)amino]benzenemethanesulfonamide trifluoroacetic acid salt] | 0.0076 µM |
| NS(=O)(=O)Cc1cccc(Nc2ncnc(-c3ccccc3Oc3ccccc3)n2)c1 [Compound B14, 1-(3-{[4-(2-phenoxyphenyl)-1,3,5-triazin-2-yl]amino}phenyl)methanesulfonamide] | 0.0255 µM |
| NS(=O)(=O)Cc1cccc(Nc2ncnc(-c3ccccc3OCc3ccccc3)n2)c1 [Compound B13, 3-[(4-(2-Benzyloxyphenyl)-1,3,5-triazin-2-yl)amino]benzenemethanesulfonamide] | 0.005 µM |
| COc1cc(Cl)ccc1-c1ncnc(Nc2cccc(CS(N)(=O)=O)c2)n1 [Compound B6, 3-[(4-(4-Chloro-2-methoxyphenyl)-1,3,5-triazin-2-yl)amino]benzenemethanesulfonamide] | 0.011 µM |
| CCOc1ccccc1-c1ncnc(Nc2cccc(CS(N)(=O)=O)c2)n1 [Compound B12, 3-[(4-(2-Ethoxyphenyl)-1,3,5-triazin-2-yl)amino]benzenemethanesulfonamide] | 0.01 µM |
| COc1cnccc1-c1ncnc(Nc2cccc(CS(N)(=O)=O)c2)n1 [Compound B19, 3-[(4-(3-Methoxypyridin-4-yl)-1,3,5-triazin-2-yl)amino]benzenemethanesulfonamide] | 0.007 µM |
| COc1cc(F)ccc1-c1ncnc(Nc2cccc(CS(N)(=O)=O)c2)n1 [B2′, 1-(3-{[4-(4-fluoro-2-methoxyphenyl)-1,3,5-triazin-2-yl]amino}phenyl)methanesulfonamide hydrochloride] | 0.0056 µM |
| COc1ccccc1-c1ncnc(Nc2cccc(CS(N)(=O)=O)c2)n1 [Compound B1, 3-[(4-(2-Methoxyphenyl)-1,3,5-triazin-2-yl)amino]benzenemethanesulfonamide] | 0.005 µM |
| COc1ccccc1-c1ncnc(Nc2cccc(S(N)(=O)=O)c2)n1 [C1′, 3-[(4-(2-Methoxyphenyl)-1,3,5-triazin-2-yl)amino]benzenesulfonamide trifluoroacetic acid salt] | < 0.005 µM |
| NS(=O)(=O)Cc1cccc(Nc2ncnc(-c3ccccc3OCc3ccccc3)n2)c1 [B13′, 3-[(4-(2-Benzyloxyphenyl)-1,3,5-triazin-2-yl)amino]benzenemethanesulfonamide trifluoroacetic acid salt] | 0.0055 µM |
| COc1cc(F)ccc1-c1ncnc(Nc2cccc(CCS(N)(=O)=O)c2)n1 [Compound D2, 2-[3-((4-(4-Fluoro-2-methoxyphenyl)-1,3,5-triazin-2-yl)amino)phenyl]ethanesulfonamide] | 0.0095 µM |
| COc1ccccc1-c1ncnc(Nc2cccc([N+](=O)[O-])c2)n1 [Compound H1, 4-(2-Methoxyphenyl)-N-(3-nitrophenyl)-1,3,5-triazine-2-amine] | 0.0178 µM |
| NS(=O)(=O)Cc1cccc(Nc2ncnc(-c3ccccc3OCc3ccncc3)n2)c1 [Compound B16, 3-[(4-(2-((4-Pyridinyl)methoxy)phenyl)-1,3,5-triazin-2-yl)amino]benzenemethanesulfonamide] | < 0.005 µM |
| COc1ccccc1-c1ncnc(Nc2cccc(CCS(N)(=O)=O)c2)n1 [Compound D1, 2-[3-((4-(2-Methoxyphenyl)-1,3,5-triazin-2-yl)amino)phenyl]ethanesulfonamide] | 0.0328 µM |
| COc1cc(F)ccc1-c1ncnc(Nc2cccc(CS(N)(=O)=O)c2)n1 [B2″, 1-(3-{[4-(4-fluoro-2-methoxyphenyl)-1,3,5-triazin-2-yl]amino}phenyl)methanesulfonamide trifluoroacetic acid salt] | 0.0066 µM |
| COc1cccc(F)c1-c1ncnc(Nc2cccc(CS(N)(=O)=O)c2)n1 [Compound B4, 3-[(4-(6-Fluoro-2-methoxyphenyl)-1,3,5-triazin-2-yl)amino]benzenemethanesulfonamide] | 0.054 µM |
| COc1ccc(F)cc1-c1ncnc(Nc2cccc(CS(N)(=O)=O)c2)n1 [Compound B3, 3-[(4-(5-Fluoro-2-methoxyphenyl)-1,3,5-triazin-2-yl)amino]benzenemethanesulfonamide] | 0.016 µM |
| COc1cc(F)ccc1-c1ncnc(Nc2cccc(CS(N)(=O)=O)c2)n1 [Compound B2, 3-[(4-(4-Fluoro-2-methoxyphenyl)-1,3,5-triazin-2-yl)amino]benzenemethanesulfonamide] | 0.005 µM |

More lines, now with the values ahead:

| Kd | Compound |
| --- | --- |
| 0.0455 µM | CCCS(=O)(=O)Nc1cccc(Nc2ncnc(-c3ccccc3OC)n2)c1 [Compound L1, N-[3-((4-(2-Methoxyphenyl)-1,3,5-triazin-2-yl)amino)phenyl]-propanesulfonamide] |
| 0.126 µM | COc1ccccc1-c1ncnc(Nc2ccccc2)n1 [Compound P1, 4-(2-Methoxyphenyl)-N-phenyl-1,3,5-triazine-2-amine] |
| 0.0385 µM | COc1ccccc1-c1ncnc(Nc2cccc(NS(C)(=O)=O)c2)n1 [Compound K1, N-[3-((4-(2-Methoxyphenyl)-1,3,5-triazin-2-yl)amino)phenyl]-methanesulfonamide] |

system: HeLa cells; test: Cell viability, HeLa cells; assay type: cell-based; details: Homo sapiens
Experimental: HeLa- or MDAMB468-Cells or MATU ADR, H460, DU145, CACO-2 or B16F10 cells were maintained in RPMI 1640 or McCoy's 5A cell culture medium+glutamine (PAN Biotech GmbH, Aidenbach, Germany; order no. P04-22100; P04-05500) supplemented with 10% fetal calf serum “Gold” (PAA Laboratories GmbH, Pasching, Austria; order no. A15-151) and grown at 37° C., 5% CO2. For the cell viability assay, cells were seeded with a density of 400 (Hela cells, DSMZ Braunschweig order no. ACC57) or 800 (MDAMB468 cells, ATCC order no. HTB-132) per well in 25 μL in 384-well plates (Greiner Bio-One, Frickenhausen, Germany; order no. 781080). After overnight incubation at 37° C./5% CO2, 25 nL or 75 nL compound were added to each sample well by using BIOMEK FXP Laboratory Automation Workstation (Beckman Coulter, USA). Wells with cells and 0.1% or 0.3% DMSO in culture medium were used as positive controls, wells with cells and 10 μM staurosporine in culture medium were used as negative controls. The cells were incubated with the compounds for 72 h at 37° C./5% CO2. For measurement of cell viability […] Cell Titer Glo reagent (Promega, Madison, USA; order no. G7573), 1:2 diluted with cell culture medium, was added to each well. The 384well-plates were placed for 2 min on an orbital microplate shaker and incubated for further 10 min at room temperature to stabilize the luminescence signal. Luminescence was measured by Envision Plate Reader (Perkin Elmer, USA). EC50 values were calculated with the software Excel Fit (IDBS, Guildford, UK) from 3-fold dilution series comprising at least 8 concentrations in duplicates.
Cultivated tumour cells (NCl-H460, human non-small cell lung carcinoma cells, ATCC HTB-177; DU 145, hormone-independent human prostate carcinoma cells, ATCC HTB-81; HeLa-MaTu, human cervical carcinoma cells, EPO-GmbH, Berlin; HeLa-MaTu-ADR, multidrug-resistant human cervical carcinoma cells, EPO-GmbH, Berlin; HeLa human cervical tumour cells, ATCC CCL-2; Caco-2 human colorectal carcinoma, ATCC HTB-37; B16F10 mouse melanoma cells, ATCC CRL-6475) were plated at a density of 5,000 cells/well (DU145, HeLa-MaTu-ADR), 3,000 cells/well (NCl-H460, HeLa-MaTu, HeLa), 1,500 cells/well (Caco-2), or 1,000 cells/well (B16F10) in a 96-well multititer plate in 200 μL of their respective growth medium supplemented with 10% fetal calf serum. After 24 hours, the cells of one plate (zero-point plate) were stained with crystal violet (see below), while the medium of the other plates was replaced by fresh culture medium (200 μl), to which the test substances were added in various concentrations (0 μM as well as in the range of 0.001 to 10 μM; the final concentration of the solvent dimethyl sulfoxide was 0.5%). The cells were incubated in the presence of test substances for 4 days. Cell proliferation was determined by staining the cells with crystal violet: The cells were fixed by adding 20 μl/measuring point of an 11% glutaric aldehyde solution at room temperature for 15 minutes. After three washing cycles of the fixed cells with water, the plates were dried at room temperature. The cells were stained by adding 100 μl/measuring point of a 0.1% crystal violet solution (pH 3.0). After three washing cycles of the stained cells with water, the plates were dried at room temperature. The dye was dissolved by adding 100 μl/measuring point of a 10% acetic acid solution. The extinction was determined by photometry at a wavelength of 595 nm. The change of cell number, in percent, was calculated by normalization of the measured values to the extinction values of the zero-point plate (equivalent to 0%) and the extinction of the untreated (0 μm) cells (equivalent to 100%). The IC50 values were determined by means of a 4 parameter fit using the company's own software.

| Compound | IC50 |
| --- | --- |
| CNS(=O)(=O)Cc1cccc(Nc2cc(-c3ccccc3OC)ncn2)c1 [Ref2, C-{3-[6-(2-Methoxy-phenyl)-pyrimidin-4-ylamino]-phenyl}-N-methyl methanesulfonamide, reference compound] | 4.6 µM |
| COc1ccccc1-c1ncnc(Nc2cccc(CS(N)(=O)=O)c2)n1 [B1′, 3-[(4-(2-Methoxyphenyl)-1,3,5-triazin-2-yl)amino]benzenemethanesulfonamide trifluoroacetic acid salt] | 3.2 µM |
| COc1ccccc1-c1ncnc(Nc2cccc(S(N)(=O)=O)c2)n1 [C1′, 3-[(4-(2-Methoxyphenyl)-1,3,5-triazin-2-yl)amino]benzenesulfonamide trifluoroacetic acid salt] | 1 µM |
| NS(=O)(=O)Cc1cccc(Nc2ncnc(-c3ccccc3OCc3ccccc3)n2)c1 [B13′, 3-[(4-(2-Benzyloxyphenyl)-1,3,5-triazin-2-yl)amino]benzenemethanesulfonamide trifluoroacetic acid salt] | 0.31 µM |
| COc1ccccc1-c1cc(Nc2cccc(CS(=O)(=O)N(C)C)c2)ncn1 [Ref4, C-{3-[6-(2-Methoxy-phenyl)-pyrimidin-4-ylamino]-phenyl}-N,N-dimethylmethanesulfonamide, reference compound] | 6.1 µM |
| COc1cc(F)ccc1-c1ncnc(Nc2cccc(CS(N)(=O)=O)c2)n1 [Compound B2, 3-[(4-(4-Fluoro-2-methoxyphenyl)-1,3,5-triazin-2-yl)amino]benzenemethanesulfonamide] | 1 µM |

Next, values leading:

| IC50 | Compound |
| --- | --- |
| 2.7 µM | CC(C)Oc1cc(F)ccc1-c1ncnc(Nc2cccc(CS(N)(=O)=O)c2)n1 [Compound U2, 1-[3-({4-[4-fluoro-2-(propan-2-yloxy)phenyl]-1,3,5-triazin-2-yl}amino)phenyl]methanesulfonamide] |
| 1.2 µM | COc1cc(F)c(F)cc1-c1ncnc(Nc2cccc(CS(N)(=O)=O)c2)n1 [Compound U7, 1-(3-{[4-(4,5-difluoro-2-methoxyphenyl)-1,3,5-triazin-2-yl]amino}phenyl)methanesulfonamide] |
| 10 µM | N#Cc1cc(F)ccc1-c1ncnc(Nc2cccc(CS(N)(=O)=O)c2)n1 [Compound U3, 1-(3-{[4-(2-cyano-4-fluorophenyl)-1,3,5-triazin-2-yl]amino}phenyl)methanesulfonamide] |
| 4.2 µM | COc1cc(F)ccc1-c1ncnc(Nc2ccc(S(C)(=O)=O)nc2)n1 [Compound U8, 4-(4-fluoro-2-methoxyphenyl)-N-[6-(methylsulfonyl)pyridin-3-yl]-1,3,5-triazin-2-amine] |
